The assay relates to NCIMB 11955. The settings on record: USM, 1% glucose, 60° C., 250 rpm, grown for 36 hours; flasks with 0, 1, 2, 3 or 4% ethanol; FIG. 1. The method, then: Ethanol tolerance of a wild-type organism (NCIMB 11955) was tested in order to determine the starting point. The organism was grown overnight (LB agar plate, 60° C.) and a colony used to inoculate an overnight culture (100 mL USM, 1% glucose, 60° C., 250 rpm). This culture was then used to inoculate a triplicate series of flasks containing 0, 1, 2, 3, or 4% ethanol which were then grown for 36 hours before the growth was measured (50 mL USM, 1% glucose, 60° C., 250 rpm).

Structures are written as SMILES.

From patent US20080305536A1, “Method for Culturing Microorganisms” (priority 2005, published 2008) come the findings set out here.

Take `CCO` [ethanol]: the “ethanol concentration tolerated (growth measured)” value is ≤ 4%.
